Measured values published in ChEMBL document CHEMBL1201862, “PubChem BioAssay data set” (2004).
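Cells were grown in 96-well plates and exposed to each compound for 48 hours at five concentrations; endpoints were interpolated linearly between bracketing concentrations, or set to the highest concentration if not reached. The concentration for 50% growth inhibition is given as GI50.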 Calls of active or inactive are those of the source. No stated cut-off is given here; in the data, active = GI50 up to about 1.1 µM and inactive = higher.

Legend:
Assay in all cases: NCI tumour cell line growth inhibition, 48 h
A498 = test system: A498
MDA-N = test system: MDA-N
HT-29 = test system: HT-29
COLO 205 = test system: COLO 205
MDA-MB-435 = test system: MDA-MB-435
HCT-15 = test system: HCT-15
OVCAR-3 = test system: OVCAR-3
HCC 2998 = test system: HCC 2998
MCF7 = test system: MCF7
HCT-116 = test system: HCT-116
SK-MEL-2 = test system: SK-MEL-2
Hs-578T = test system: Hs-578T
Malme-3M = test system: Malme-3M
MDA-MB-231 = test system: MDA-MB-231
NCI/ADR-RES = test system: NCI/ADR-RES
ACHN = test system: ACHN
RPMI-8226 = test system: RPMI-8226
U-251 = test system: U-251
M14 = test system: M14
LOX IMVI = test system: LOX IMVI
PC-3 = test system: PC-3
SR = test system: SR
K562 = test system: K562
SK-MEL-28 = test system: SK-MEL-28
SNB-75 = test system: SNB-75
NCI-H460 = test system: NCI-H460
SNB-19 = test system: SNB-19
EKVX = test system: EKVX
UACC-62 = test system: UACC-62
T47D = test system: T47D
TK-10 = test system: TK-10
DU-145 = test system: DU-145
SW-620 = test system: SW-620
RXF 393 = test system: RXF 393
UO-31 = test system: UO-31
SN12C = test system: SN12C
OVCAR-8 = test system: OVCAR-8
HOP-92 = test system: HOP-92
SF-539 = test system: SF-539
SK-MEL-5 = test system: SK-MEL-5
NCI-H522 = test system: NCI-H522
OVCAR-4 = test system: OVCAR-4
SF-295 = test system: SF-295
BT-549 = test system: BT-549
HOP-62 = test system: HOP-62
786-0 = test system: 786-0
SK-OV-3 = test system: SK-OV-3
OVCAR-5 = test system: OVCAR-5
A549 = test system: A549
UACC-257 = test system: UACC-257
NCI-H226 = test system: NCI-H226
KM12 = test system: KM12
NCI-H23 = test system: NCI-H23
SF-268 = test system: SF-268
CAKI-1 = test system: CAKI-1
IGROV-1 = test system: IGROV-1
HL-60 = test system: HL-60
MOLT-4 = test system: MOLT-4
CCRF-CEM = test system: CCRF-CEM

NS(=O)(=O)c1cc2c(cc1Cl)NC(Cc1ccccc1)NS2(=O)=O (stereo not drawn) [BENZYLHYDROCHLOROTHIAZIDE]
GI50 (A498): > 100 µM (inactive) | GI50 (MDA-N): 53.7 µM (inactive) | GI50 (HT-29): > 100 µM (inactive) | GI50 (COLO 205): > 100 µM (inactive) | GI50 (MDA-MB-435): 45.1 µM (inactive) | GI50 (HCT-15): > 100 µM | GI50 (OVCAR-3): > 100 µM (inactive) | GI50 (HCC 2998): > 100 µM (inactive) | GI50 (MCF7): 60.4 µM (inactive) | GI50 (HCT-116): 46.1 µM (inactive) | GI50 (SK-MEL-2): > 100 µM (inactive) | GI50 (Hs-578T): > 100 µM (inactive) | GI50 (Malme-3M): > 100 µM (inactive) | GI50 (MDA-MB-231): > 100 µM (inactive) | GI50 (NCI/ADR-RES): > 100 µM (inactive) | GI50 (ACHN): > 100 µM (inactive) | GI50 (RPMI-8226): 53.1 µM (inactive) | GI50 (U-251): > 100 µM (inactive) | GI50 (M14): > 100 µM (inactive) | GI50 (LOX IMVI): 99.8 µM (inactive) | GI50 (PC-3): > 100 µM (inactive) | GI50 (SR): 61 µM (inactive) | GI50 (K562): 63.1 µM (inactive) | GI50 (SK-MEL-28): > 100 µM (inactive) | GI50 (SNB-75): > 100 µM (inactive) | GI50 (NCI-H460): > 100 µM (inactive) | GI50 (SNB-19): > 100 µM (inactive) | GI50 (EKVX): > 100 µM (inactive) | GI50 (UACC-62): > 100 µM (inactive) | GI50 (T47D): > 100 µM (inactive) | GI50 (TK-10): > 100 µM (inactive) | GI50 (DU-145): > 100 µM (inactive) | GI50 (SW-620): 41.7 µM (inactive) | GI50 (RXF 393): > 100 µM (inactive) | GI50 (UO-31): > 100 µM (inactive) | GI50 (SN12C): > 100 µM (inactive) | GI50 (OVCAR-8): > 100 µM (inactive) | GI50 (HOP-92): > 100 µM (inactive) | GI50 (SF-539): 45.1 µM (inactive) | GI50 (SK-MEL-5): > 100 µM (inactive) | GI50 (NCI-H522): > 100 µM (inactive) | GI50 (OVCAR-4): > 100 µM (inactive) | GI50 (SF-295): > 100 µM (inactive) | GI50 (BT-549): > 100 µM (inactive) | GI50 (HOP-62): > 100 µM (inactive) | GI50 (786-0): > 100 µM (inactive) | GI50 (SK-OV-3): > 100 µM (inactive) | GI50 (OVCAR-5): > 100 µM (inactive) | GI50 (A549): > 100 µM (inactive) | GI50 (UACC-257): > 100 µM (inactive) | GI50 (NCI-H226): > 100 µM (inactive) | GI50 (KM12): > 100 µM (inactive) | GI50 (NCI-H23): > 100 µM (inactive) | GI50 (SF-268): > 100 µM (inactive) | GI50 (CAKI-1): > 100 µM (inactive) | GI50 (IGROV-1): > 100 µM (inactive)

Cc1nn(-c2ccccc2)c(C)c1/C=N/N=C1\SCC(=O)N1c1ccccc1
GI50 (A498): 23.6 µM (inactive) | GI50 (MDA-N): 20.9 µM (inactive) | GI50 (HT-29): 20.5 µM (inactive) | GI50 (COLO 205): 14.9 µM (inactive) | GI50 (MDA-MB-435): 20.5 µM (inactive) | GI50 (HCT-15): 17.9 µM | GI50 (OVCAR-3): 24.9 µM (inactive) | GI50 (HCC 2998): 20.3 µM (inactive) | GI50 (MCF7): 27.4 µM (inactive) | GI50 (HCT-116): 19.1 µM (inactive) | GI50 (SK-MEL-2): 25.7 µM (inactive) | GI50 (Hs-578T): 37.2 µM (inactive) | GI50 (Malme-3M): 21.2 µM (inactive) | GI50 (MDA-MB-231): 35 µM (inactive) | GI50 (NCI/ADR-RES): 18.5 µM (inactive) | GI50 (ACHN): 17.3 µM (inactive) | GI50 (RPMI-8226): 13.4 µM (inactive) | GI50 (U-251): 25.8 µM (inactive) | GI50 (HL-60): 30.8 µM (inactive) | GI50 (M14): 28.6 µM (inactive) | GI50 (LOX IMVI): 22.6 µM (inactive) | GI50 (PC-3): 19.2 µM (inactive) | GI50 (SR): 25.1 µM (inactive) | GI50 (K562): 25.8 µM (inactive) | GI50 (SK-MEL-28): 22.3 µM (inactive) | GI50 (SNB-75): 20.4 µM (inactive) | GI50 (NCI-H460): 18.3 µM (inactive) | GI50 (SNB-19): 43.1 µM (inactive) | GI50 (EKVX): 12.4 µM (inactive) | GI50 (UACC-62): 21.4 µM (inactive) | GI50 (T47D): 26.5 µM (inactive) | GI50 (TK-10): 26.2 µM (inactive) | GI50 (DU-145): 31.8 µM (inactive) | GI50 (SW-620): 33.9 µM (inactive) | GI50 (RXF 393): 16.5 µM (inactive) | GI50 (UO-31): 21.5 µM (inactive) | GI50 (SN12C): 44.7 µM (inactive) | GI50 (OVCAR-8): 21.7 µM (inactive) | GI50 (MOLT-4): 30.8 µM (inactive) | GI50 (CCRF-CEM): 25 µM (inactive) | GI50 (SF-539): 22.9 µM (inactive) | GI50 (SK-MEL-5): 15 µM (inactive) | GI50 (OVCAR-4): 10.6 µM (inactive) | GI50 (SF-295): 21.5 µM (inactive) | GI50 (BT-549): 22 µM (inactive) | GI50 (HOP-62): 37.9 µM (inactive) | GI50 (786-0): 15.8 µM (inactive) | GI50 (SK-OV-3): 29.8 µM (inactive) | GI50 (OVCAR-5): 27.7 µM (inactive) | GI50 (A549): 28.6 µM (inactive) | GI50 (UACC-257): 32.4 µM (inactive) | GI50 (NCI-H226): 23.6 µM (inactive) | GI50 (KM12): 25 µM (inactive) | GI50 (NCI-H23): 27.5 µM (inactive) | GI50 (SF-268): 28.4 µM (inactive) | GI50 (CAKI-1): 19.4 µM (inactive) | GI50 (IGROV-1): 32.3 µM (inactive)
